How the values were obtained:
bedstraw = assay: Test B pre/postemergence bedstraw; type: in vivo, Galium aparine
Method in brief: (§1)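 Herbicidal effect was estimated by eye on a ten-point control scale after plants spent twelve to sixteen days in a greenhouse following soil or foliar treatment. Foliar sprays targeted plants at one to four leaves; all doses were formulated in a non-phytotoxic solvent with surfactant.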

pigweed = assay: Test B pre/postemergence pigweed; type: in vivo, Amaranthus retroflexus
Method in brief: as §1

rice = assay: Test B flood test rice; type: in vivo, Oryza sativa
Method in brief: (§2)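 Flood test on plants grown to the 2-leaf stage; treated plants kept in greenhouse twelve to sixteen days, then visually rated against controls on a 0 (no effect) to 10 (complete control) scale.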

bamyardgrass = assay: Test B flood test barnyardgrass; type: in vivo, Echinochloa crus-galli
Method in brief: as §2

[1] = Preemergence, Rate 62 g/ha, scale of 0 to 10 where 0 is no effect and 10 is complete control
[2] = Preemergence, Rate 250 g/ha, scale of 0 to 10 where 0 is no effect and 10 is complete control
[3] = Preemergence, Rate 500 g/ha, scale of 0 to 10 where 0 is no effect and 10 is complete control
[4] = Rate 62 g/ha, Postemergence, scale of 0 to 10 where 0 is no effect and 10 is complete control
[5] = Rate 125 g/ha, Postemergence, scale 0 to 10
[6] = Rate 125 g/ha, Preemergence, scale of 0 to 10 where 0 is no effect and 10 is complete control
[7] = Rate 500 g/ha, Postemergence, scale 0 to 10, 0 no effect, 10 complete control
[8] = Rate 62 g/ha, headed Pre-emergence (flood test species), scale 0 to 10 (0 no effect, 10 complete control)
[9] = Rate 125 g/ha, Pre-emergence, flood test species, scale 0 to 10 where 0 is no effect and 10 is complete control
[10] = Rate 250 g/ha, Pre-emergence, flood-test species, scale 0 to 10, 0 is no effect, 10 is complete control
[11] = Rate 500 g/ha, Pre-emergence, flood test species, scale 0 to 10 (0 no effect, 10 complete control)
[12] = Postemergence, Rate 250 g/ha, scale 0 to 10, 0 is no effect, 10 is complete control
[13] = Postemergence, Rate 500 g/ha, scale of 0 to 10 where 0 is no effect and 10 is complete control
[14] = Rate 125 g/ha, Postemergence, scale 0 to 10, 0 is no effect, 10 is complete control
[15] = Preemergence, Rate 62 g/ha, scale 0 to 10 (0 no effect, 10 complete control)
[16] = Preemergence, Rate 250 g/ha, scale 0 to 10, 0 is no effect, 10 is complete control
[17] = Postemergence section (flood test species), Rate 500 g/ha, scale of 0 to 10 where 0 is no effect and 10 is complete control
[18] = Rate 125 g/ha, Postemergence section (flood test species), scale 0 to 10, 0 is no effect, 10 is complete control
[19] = flood test species, listed under Postemergence, Rate 250 g/ha, scale 0 to 10, 0 is no effect, 10 is complete control
[20] = Postemergence, Rate 125 g/ha, scale of 0 to 10 where 0 is no effect and 10 is complete control
[21] = Preemergence, Rate 125 g/ha, 0 is no effect, 10 is complete control
[22] = Preemergence, Rate 500 g/ha, scale 0 to 10 (0 no effect, 10 complete control)
[23] = Rate 250 g/ha, Postemergence, scale 0 to 10, 0 is no effect, 10 is complete control
[24] = Postemergence (flood test species), Rate 125 g/ha, scale of 0 to 10 where 0 is no effect and 10 is complete control
[25] = Rate 62 g/ha, Postemergence section, flood test species, scale of 0 to 10 where 0 is no effect and 10 is complete control
[26] = Rate 250 g/ha, Postemergence (flood test), scale 0 to 10, 0 is no effect, 10 is complete control

## CCN(C(=O)n1oc(=O)n(C)c1=O)C1CCCCC1 [Compound 228]
bedstraw; [1]
  Bedstraw plant response rating: 0
bedstraw; [2]
  Bedstraw plant response rating: 0
bedstraw; [3]
  Plant response rating, Bedstraw: 0
bedstraw; [4]
  Bedstraw plant response rating: 0
bedstraw; [5]
  Bedstraw plant response rating: 0
bedstraw; [6]
  Bedstraw plant response rating: 0
bedstraw; Rate 250 g/ha, Postemergence
  Plant response rating (0 to 10; 0 is no effect, 10 is complete control), Bedstraw: 0
bedstraw; [7]
  Bedstraw plant response rating: 2
pigweed; [1]
  Redroot pigweed plant response rating: 0
pigweed; [2]
  Redroot pigweed plant response rating: 0
pigweed; [3]
  Plant response rating, Redroot pigweed: 0
pigweed; [4]
  Redroot pigweed plant response rating: 0
pigweed; [5]
  Redroot pigweed plant response rating: 0
pigweed; [6]
  Redroot pigweed plant response rating: 0
pigweed; Rate 250 g/ha, Postemergence
  Plant response rating (0 to 10; 0 is no effect, 10 is complete control), Redroot pigweed: 0
pigweed; [7]
  Redroot pigweed plant response rating: 2
rice; [8]
  Rice plant response rating: 0
rice; [9]
  Rice plant response rating: 0
rice; [10]
  Rice plant response rating: 0
rice; [11]
  Rice plant response rating: 0
bamyardgrass; [8]
  Barnyardgrass plant response rating: 0
bamyardgrass; [9]
  Barnyardgrass plant response rating: 0
bamyardgrass; [10]
  Barnyardgrass plant response rating: 0
bamyardgrass; [11]
  Barnyardgrass plant response rating: 0

## CC(C)N(C(=O)n1oc(=O)n(C(CF)CF)c1=O)c1ccccc1 [Compound 421]
bedstraw; [12]
  Plant response rating, Bedstraw: 7
bedstraw; [13]
  Bedstraw plant response rating: 7
bedstraw; [14]
  Bedstraw plant response rating: 4
pigweed; [12]
  Plant response rating, Redroot pigweed: 5
pigweed; [13]
  Redroot pigweed plant response rating: 8
pigweed; [15]
  Plant response rating, Redroot pigweed: 8
pigweed; Preemergence, Rate 125 g/ha, scale of 0 to 10 where 0 is no effect and 10 is complete control
  Plant response rating, Redroot pigweed: 10
pigweed; [16]
  Redroot pigweed plant response rating: 10
pigweed; Preemergence, Rate 500 g/ha, scale 0 to 10, 0 is no effect, 10 is complete control
  Redroot pigweed plant response rating: 10
pigweed; [14]
  Redroot pigweed plant response rating: 2
rice; [17]
  Rice plant response rating: 2
rice; [18]
  Rice plant response rating: 0
rice; [19]
  Plant response rating, Rice: 2
bamyardgrass; [17]
  Barnyardgrass plant response rating: 3
bamyardgrass; Rate 62 g/ha, Postemergence (flood test species), scale of 0 to 10 where 0 is no effect and 10 is complete control
  Barnyardgrass plant response rating: 0
bamyardgrass; [18]
  Barnyardgrass plant response rating: 0
bamyardgrass; [19]
  Plant response rating, Barnyardgrass: 2

## CN(C(=O)n1oc(=O)n(Cc2ccccc2)c1=O)c1ccccc1 [Compound 153]
bedstraw; [20]
  Bedstraw plant response rating: 0
bedstraw; [15]
  Bedstraw plant response rating: 0
bedstraw; [21]
  Bedstraw plant response rating (0 to 10 scale): 0
bedstraw; [16]
  Bedstraw plant response rating: 0
bedstraw; [22]
  Bedstraw plant response rating: 0
bedstraw; [4]
  Bedstraw plant response rating: 0
bedstraw; [23]
  Plant response rating, Bedstraw: 0
bedstraw; [7]
  Bedstraw plant response rating: 0
pigweed; [20]
  Redroot pigweed plant response rating: 0
pigweed; [15]
  Redroot pigweed plant response rating: 0
pigweed; [21]
  Redroot pigweed plant response rating (0 to 10 scale): 0
pigweed; [16]
  Redroot pigweed plant response rating: 0
pigweed; [22]
  Redroot pigweed plant response rating: 0
pigweed; [4]
  Redroot pigweed plant response rating: 0
pigweed; [23]
  Plant response rating, Redroot pigweed: 0
pigweed; Rate 500 g/ha, Postemergence, scale 0 to 10
  Redroot pigweed plant response rating: 0
rice; [24]
  Rice plant response rating: 0
rice; [25]
  Rice plant response rating: 0
rice; [26]
  Plant response rating, Rice: 0
rice; Rate 500 g/ha, listed under Postemergence (flood test species), scale 0 to 10
  Rice plant response rating: 0
bamyardgrass; [24]
  Barnyardgrass plant response rating: 0
bamyardgrass; [25]
  Barnyardgrass plant response rating: 0
bamyardgrass; [26]
  Plant response rating, Barnyardgrass: 0
bamyardgrass; Rate 500 g/ha, listed under Postemergence (flood test species), scale 0 to 10, 0 no effect, 10 complete control
  Barnyardgrass plant response rating: 0

Source: patent publication US6737383B1, “Herbicidal oxadiazolidines” (priority 1999, dated 2004)
